Converted amounts (≈) assume the structure as drawn. Read-outs that look alike come from different tables or passages of the source.
Legend:
[1] = system: T. cruzi amastigote (Tulahuen strain expressing β-galactosidase); assay: Intracellular T. cruzi assay in 3T3 cells (beta-galactosidase, 96 h); type: cell-based, Trypanosoma cruzi; details: read-out: T. cruzi amastigote EC50
Description: In a 96-well plate, 5×10^4 3T3 cells in DMEM without phenol red supplemented with 2% FBS were added to each well. Cells were incubated for 2 h to allow for attachment. Compounds were added in triplicates at 50 μM and in serial dilutions 1:2. To each well, 5×10^4 T. cruzi trypomastigotes (Tulahuen strain expressing β-galactosidase) were added and incubated at 37°C, 5% CO2 for 96 h. Following incubation, 50 μL of 500 μM chlorophenol Red-β-D-galactopyranoside (CPRG) in phosphate-buffered saline with 0.5% NP40 was added to each well and incubated at 37°C, 5% CO2 for 4 h. Absorbance was read at 590–595 nm.

[2] = system: L. major amastigote; assay: L. major intracellular amastigote luciferase assay in RAW 264.7 macrophages; type: cell-based, Leishmania major; details: intracellular amastigotes in RAW 264.7 macrophages, 96 h
Description: Amastigote assays were performed using pLEXSY-hyg2-luciferase L. major transfected promastigotes and the murine RAW 264.7 macrophage cell line (ATCC TIB-71, Manassas, VA). Briefly, luciferase-expressing promastigotes of each Leishmania species were generated by adding a luciferase encoding region to the pLEXSY-hyg2 vector (Jena Biosciences, Germany) as described. One μg of the linearized pLEXSY-hyg2-luciferase vector were electroporated (480 V, 13 Ω, and 500 μF) into 4×10^7 Leishmania promastigotes. Selection for stable promastigote transfectants was carried out using hygromycin B (100 μg/mL). RAW 264.7 macrophages were maintained in growth medium (Dulbecco’s Modified Eagle’s Medium supplemented with heat-inactivated 10% FBS (Life Technologies)). Cells were harvested and resuspended in growth medium at 2.0×10^5 cells/mL, and 1×10^4 cells/well were dispensed (final volume 50 μL) in each well of a 384 well tissue-culture treated white plate using a EVO Freedom liquid handling system (Tecan, Durham, NC). Plates were incubated at 37°C in 5% CO2 for 24 h after which the culture medium was removed from each well using the EVO Freedom liquid handler. Metacyclic phase pLEXSY-hyg2-luciferase-Leishmania promastigotes (MOI = 1:10 L. major) were added to each assay plate well and allowed to infect the RAW 264.7 macrophages. After an overnight incubation, the growth medium was aspirated and each well was washed three times with 40 μL of fresh growth medium to remove non-internalized promastigotes. After the third wash, 69.2 μL of growth medium was added to each well. Compound dilutions (final concentration ranges 0.5–10,000 ng/mL) were generated and dispensed using the liquid handling system. Compound treated plates were incubated at 37°C in 5% CO2 for 96 h. After incubation, 7.5 μL of a luciferin solution (Caliper Life Science, Waltham, MA) diluted to 150 μg/mL was added to each well, and the plates were incubated for 30 min at 37°C in the dark. Data were captured using an Infinite M200 plate reader (Tecan). EC50s were generated for each concentration response test using GraphPad Prism software 6.0.

[3] = Human plasma protein binding; type: in vitro ADME; details: for fraction unbound: read-out: Human PPB (converted)
[4] = LogD7.4; type: physicochemical; details: pH 7.4
[5] = Rat hepatocyte intrinsic clearance; type: in vitro ADME; details: for hepatocyte CLint: hepatocytes
[6] = system: T. b. brucei (strain 427); assay: T. b. brucei proliferation assay (PrestoBlue, 48 h); type: cell-based, Trypanosoma brucei brucei
Description: The assay was performed following a previously reported procedure. Briefly, in a 96-well plate, compounds were added in triplicates at 50 μM and in serial dilutions 1:2 in HMI-9 medium. To each well, 100 μL of 2.5×10^3 T. b. brucei (strain 427, received as a gift from Dr. C. C. Wang at UCSF) in HMI-9 medium was were added and incubated at 37°C, 5% CO2 for 48 h. Following incubation, 20 μL of PrestoBlue were added to each well and incubated for additional 4 h. Fluorescence was read at 530 nm excitation and 590 nm emission.

[7] = Human liver microsome intrinsic clearance; type: in vitro ADME; details: for microsomal CLint: liver microsomes
[8] = Aqueous solubility; type: physicochemical
[9] = system: HepG2 cells; assay: Drug toxicity to HepG2 cells (MTT, 48 h); type: cell-based, human; details: tested concentration ranges based on compound solubility
Description: HepG2 cells were cultured in complete Minimal Essential Medium prepared by supplementing MEM with 0.19% sodium bicarbonate, 10% heat inactivated FBS, 2 mM L-glutamine, 0.1 mM MEM non-essential amino, 0.009 mg/mL insulin, 1.76 mg/mL bovine serum albumin, 20 units/mL penicillin–streptomycin, and 0.05 mg/mL gentamycin. HepG2 cells cultured in complete MEM were first washed with 1× Hank’s Balanced Salt Solution (Invitrogen #14175095), trypsinized using a 0.25% trypsin/EDTA solution, assessed for viability using trypan blue, and resuspended at 250,000 cells/mL. Using a Tecan EVO Freedom robot, 38.3 μL of cell suspension were added to each well of clear, cell culture-treated 384-well microtiter plates for a final concentration of 9570 liver cells per well, and plated cells were incubated overnight in 5% CO2 at 37°C. Drug plates were prepared with the Tecan EVO Freedom using sterile 96 well plates containing twelve duplicate 1.6-fold serial dilutions of each test compound suspended in DMSO. 4.25 μL of diluted test compound was then added to the 38.3 μL of media in each well providing a […] final dilution of compound. Compounds were tested from a range of 57 ng/mL to 10,000 ng/mL for all assays. Mefloquine was used as a plate control for all assays with a concentration ranging from 113 ng/mL to 20,000 ng/mL. After a 48 h incubation period, 8 μL of a 1.5 mg/mL solution of MTT diluted in complete MEM media was added to each well. All plates were subsequently incubated in the dark for 1 h at room temperature. After incubation, the media and drugs in each well was removed by shaking the plate over sink, and the plates were left to dry in a fume hood for 15 mins. Next, 30 μL of isopropanol acidified by addition of HCl at a final concentration of 0.36% was added to dissolve the formazan dye crystals created by reduction of MTT. Plates are put on a 3-D rotator for 15–30 mins. Absorbance was determined in all wells using a Tecan iControl 1.6 Infinite plate reader.

[10] = Trypanosoma cruzi, TULAHUEN, NIH3T3, 96 h
[11] = intracellular in 3T3 cells, 96 h

SMILES | EC50 [1, 10] [nM] | EC50 ([2]; Leishmania major, RAW264.7) [nM] | fraction unbound [3] | logD [4] | hepatocyte CLint [5] [µL/min/1e6 cells] | EC50 ([6]; Trypanosoma brucei) [nM] | microsomal CLint [7] [µL/min/mg] | solubility [8] [µM] | other results
C[C@@H]1[C@H](O)[C@@H](C)/C=C/C=C/C=C/C=C/C=C/C=C/C=C/[C@H](O[C@@H]2O[C@H](C)[C@@H](O)[C@H](N)[C@@H]2O)C[C@@H]2O[C@](O)(C[C@@H](O)C[C@@H](O)[C@H](O)CC[C@@H](O)C[C@@H](O)CC(=O)O[C@H]1C)C[C@H](O)[C@H]2C(=O)O [Amphotericin B, reference compound] | 480 | 36 |  |  |  |  |  |  | 
CN1CCN(S(=O)(=O)c2ccc(-c3ccc4c(Nc5ccc(C(F)(F)F)nc5)ccnc4c3)cc2)CC1 [Compound 12] | 5400 | 6200 | 0.02 | 4.4 | 260 | 700 | 390 |  | 
CN1CCN(c2nccc(Nc3ccc4c(Nc5cnccn5)ccnc4c3)n2)CC1 [NEU-2094] |  |  |  |  |  |  |  |  | LogD7.4 [4]: 2.9; EC50 [1, 11]: > 50000 nM
COc1ncc(Nc2ccnc3cc(-c4ccc(S(=O)(=O)N5CCN(C)CC5)cc4)ccc23)cn1 [Compound 2] | > 50000 | 3100 | 0.12 | 3.1 |  | 2500 |  | 7.3 (≈ 3.58 µg/mL) | 
COc1ccc(Nc2ccnc3cc(Nc4nccc(N5CCN(C)CC5)n4)ccc23)cc1Cl [NEU-2090] |  |  |  |  |  |  |  | 570 (≈ 271 µg/mL) | Human PPB [3]: 99%; LogD7.4 [4]: 3.3; Rat Hepatocyte CLint [5]: 7.2 μL/min/10^6 cells; EC50 [1, 11]: > 20000 nM; EC50 [6]: 350 nM; HepG2 TC50 [9]: 7600 nM; EC50 [2]: 2300 nM
CN1CCN(c2ccnc(Nc3ccc4c(Nc5cnccn5)ccnc4c3)n2)CC1 [NEU-2091] |  |  |  |  |  |  |  |  | LogD7.4 [4]: 2.8; Rat Hepatocyte CLint [5]: 9.3 μL/min/10^6 cells; EC50 [1, 11]: > 20000 nM
CN1CCN(S(=O)(=O)c2ccc(-c3ccc4c(Nc5cnccn5)ccnc4c3)cc2)CC1 [Compound 4] | 16000 | 20000 | 0.06 | 3.2 |  | 910 |  | 4.2 (≈ 1.93 µg/mL) | 
Cc1ccc(Nc2ccnc3cc(-c4ccc(S(=O)(=O)N5CCN(C)CC5)cc4)ccc23)cc1Cl [Compound 8] | > 50000 | 2400 |  |  |  | 650 | 290 |  | 
CN1CCN(S(=O)(=O)c2ccc(-c3ccc4c(Nc5ccc(Cl)cn5)ccnc4c3)cc2)CC1 [Compound 5] | 2800 | 2100 | < 0.01 |  |  | 270 |  | < 1 | 
CN1CCN(S(=O)(=O)c2cccc(-c3ccc4c(Nc5ccc(OCc6cccc(F)c6)c(Cl)c5)ccnc4c3)c2)CC1 [Compound 13] | > 50000 | 200 | < 0.01 | 4.8 | 24 | 480 | 110 | < 1 | 
CN1CCN(c2ccc(Nc3ccc4c(Nc5ccc(OCc6cccc(F)c6)c(Cl)c5)ccnc4c3)cc2)CC1 [Compound 17] | 2100 | 1200 |  |  |  | 120 |  |  | 
CN1CCN(S(=O)(=O)c2ccc(-c3ccc4c(Nc5cccc(Cl)c5)ccnc4c3)cc2)CC1 [Compound 7] | > 50000 | 3400 | < 0.01 |  | 15 | > 50000 | 150 |  | 
c1cnc(Nc2ccnc3cc(-c4cn[nH]c4)ccc23)cn1 [NEU-2088] |  |  |  |  |  |  |  | 1 (≈ 0.288 µg/mL) | LogD7.4 [4]: 2.6; Rat Hepatocyte CLint [5]: 5 μL/min/10^6 cells; EC50 [1, 11]: > 50000 nM; EC50 [6]: 290 nM; HepG2 TC50 [9]: 4500 nM; EC50 [2]: 3000 nM; Human Liver Microsome CLint [7]: 130 µL/min/mg
COc1cnc(Nc2ccnc3cc(-c4ccc(S(=O)(=O)N5CCN(C)CC5)cc4)ccc23)cn1 [Compound 3] | 9700 | 19000 | 0.03 | 4.2 |  | 620 |  | 3.2 (≈ 1.57 µg/mL) | 
CN1CCN(c2ccnc(Nc3ccc4c(Nc5ccc(OCc6cccc(F)c6)c(Cl)c5)ccnc4c3)n2)CC1 [Compound 19] | 2700 | 2500 |  | 4.7 | 4.6 | 120 | 21 | 1 (≈ 0.57 µg/mL) | 
Cc1ccc(Nc2ccnc3cc(-c4ccc(S(=O)(=O)N5CCN(C)CC5)cc4)ccc23)cn1 [Compound 11] | 9900 | 3900 | 0.08 | 3.7 | 49 | 690 | 400 |  | 
CN1CCN(c2ccc(Nc3ccc4c(Nc5cnccn5)ccnc4c3)cc2)CC1 [NEU-2096] |  |  |  |  |  |  |  |  | Human PPB [3]: 88%; LogD7.4 [4]: 2.2; Rat Hepatocyte CLint [5]: 10 μL/min/10^6 cells; EC50 [2]: 7900 nM
COc1ccc(Nc2ccnc3cc(-c4ccc(S(=O)(=O)N5CCN(C)CC5)cc4)ccc23)cc1 [Compound 9] | 1900 | 4400 |  | 4.2 | 58 | 520 | 350 | 9 (≈ 4.4 µg/mL) | 
COc1ccc(Nc2ccnc3cc(-c4cn[nH]c4)ccc23)cc1Cl [NEU-2087] |  |  |  |  |  |  |  | 2 (≈ 0.702 µg/mL) | Human PPB [3]: 97%; LogD7.4 [4]: 3.5; Rat Hepatocyte CLint [5]: 5 μL/min/10^6 cells; EC50 [1, 11]: > 50000 nM; EC50 [6]: 910 nM; HepG2 TC50 [9]: 23000 nM; EC50 [2]: 29000 nM; Human Liver Microsome CLint [7]: 8 µL/min/mg
CN1CCN(c2nccc(Nc3ccc4c(Nc5ccc(OCc6cccc(F)c6)c(Cl)c5)ccnc4c3)n2)CC1 [Compound 20] | 4300 | 1200 |  |  |  | 98 |  |  | 
CN1CCN(c2ncc(Nc3ccc4c(Nc5ccc(OCc6cccc(F)c6)c(Cl)c5)ccnc4c3)cn2)CC1 [Compound 18] | 2700 | 870 |  |  |  | 160 |  |  | 
CN1CCN(S(=O)(=O)c2ccc(-c3ccc4c(Nc5ccc(OC(F)(F)F)cc5)ccnc4c3)cc2)CC1 [Compound 10] | 1400 | 780 | < 0.01 | 4.5 | 79 | 270 | 280 |  | 

From publication PMC6283615, “Anilinoquinoline based inhibitors of trypanosomatid proliferation” (PLoS Neglected Tropical Diseases, 2018)
